Key:
Format in all cases: in vivo
[1] = test system: Abutilon theophrasti; assay: Pre-emergence herbicidal action against ABUTH; conditions: visual score after 3 weeks vs untreated controls
Summary of the method: (§1)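 Pre-emergence soil-surface spray of formulated compound (WP or EC; 600 to 800 l/ha; 0.2% wetting agent) over seeds sown in sandy loam. After 3 weeks under greenhouse conditions, damage is estimated visually in percent against untreated plants.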

[2] = test system: Alopecurus myosuroides; assay: Pre-emergence herbicidal action against ALOMY; conditions: 320 g/ha; visual score after 3 weeks vs untreated controls
Summary of the method: as §1

[3] = test system: Amaranthus retroflexus; assay: Pre-emergence herbicidal action against AMARE; conditions: visual score after 3 weeks vs untreated controls
Summary of the method: as §1

[4] = test system: Avena fatua; assay: Pre-emergence herbicidal action against AVEFA; conditions: visual score after 3 weeks vs untreated controls
Summary of the method: as §1

[5] = test system: Cyperus esculentus; assay: Pre-emergence herbicidal action against CYPES; conditions: visual score after 3 weeks vs untreated controls
Summary of the method: as §1

[6] = test system: Echinochloa crus-galli; assay: Pre-emergence herbicidal action against ECHCG; conditions: visual score after 3 weeks vs untreated controls
Summary of the method: as §1

[7] = test system: Matricaria inodora; assay: Pre-emergence herbicidal action against MATIN; conditions: visual score after 3 weeks vs untreated controls
Summary of the method: as §1

[8] = test system: Pharbitis purpurea; assay: Pre-emergence herbicidal action against PHBPU; conditions: 320 g/ha; visual score after 3 weeks vs untreated controls
Summary of the method: as §1

[9] = test system: Hordeum murinum; assay: Pre-emergence herbicidal action against HORMU; conditions: 320 g/ha; visual score after 3 weeks vs untreated controls
Summary of the method: as §1

[10] = test system: Lolium rigidum; assay: Pre-emergence herbicidal action against LOLRI
Summary of the method: as §1

[11] = test system: Polygonum convolvulus; assay: Pre-emergence herbicidal action against POLCO
Summary of the method: as §1

[12] = test system: Setaria viridis; assay: Pre-emergence herbicidal action against SETVI
Summary of the method: as §1

[13] = test system: Stellaria media; assay: Pre-emergence herbicidal action against STEME
Summary of the method: as §1

[14] = test system: Veronica persica; assay: Pre-emergence herbicidal action against VERPE; conditions: 320 g/ha
Summary of the method: as §1

[15] = test system: Viola tricolor; assay: Pre-emergence herbicidal action against VIOTR
Summary of the method: as §1

[16] = test system: Abutilon theophrasti; assay: Post-emergence herbicidal action against ABUTH
Summary of the method: (§2)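 Spray, one-leaf stage: WP or EC compound in water, 600–800 l/ha, 0.2% wetting agent. Plants held about 3 weeks in the greenhouse, then visually rated in percent of kill compared with untreated controls.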

[17] = test system: Alopecurus myosuroides; assay: Post-emergence herbicidal action against ALOMY; conditions: 80 g/ha
Summary of the method: as §2

[18] = test system: Amaranthus retroflexus; assay: Post-emergence herbicidal action against AMARE; conditions: visual assessment about 3 weeks after treatment
Summary of the method: as §2

[19] = test system: Avena fatua; assay: Post-emergence herbicidal action against AVEFA; conditions: visual assessment about 3 weeks after treatment
Summary of the method: as §2

[20] = test system: Echinochloa crus-galli; assay: Post-emergence herbicidal action against ECHCG; conditions: visual assessment about 3 weeks after treatment
Summary of the method: as §2

[21] = test system: Matricaria inodora; assay: Post-emergence herbicidal action against MATIN; conditions: visual assessment about 3 weeks after treatment
Summary of the method: as §2

[22] = test system: Pharbitis purpurea; assay: Post-emergence herbicidal action against PHBPU; conditions: visual assessment about 3 weeks after treatment
Summary of the method: as §2

[23] = test system: Lolium rigidum; assay: Post-emergence herbicidal action against LOLRI; conditions: 80 g/ha
Experimental: Seeds of monocotyledonous and dicotyledonous weed and crop plants are laid out in sandy loam soil in wood-fiber pots, covered with soil and cultivated in a greenhouse under good growth conditions. 2 to 3 weeks after sowing, the test plants are treated at the one-leaf stage. The compounds of the invention, formulated in the form of wettable powders (WP) or as emulsion concentrates (EC), are then sprayed onto the green parts of the plants in the form of an aqueous suspension or emulsion at a water application rate equivalent to 600 to 800 l/ha, with addition of 0.2% wetting agent. After the test plants have been left to stand in the greenhouse under optimal growth conditions for about 3 weeks, the action of the preparations is assessed visually in comparison to untreated controls (herbicidal action in percent (%): 100% activity=the plants have died, 0% activity=like control plants). […] The tables below illustrate, in an illustrative manner, the post-emergence herbicidal action of the compounds of the invention, the herbicidal activity being stated in percent.

[24] = test system: Polygonum convolvulus; assay: Post-emergence herbicidal action against POLCO; conditions: visual assessment about 3 weeks after treatment
Summary of the method: as §2

[25] = test system: Setaria viridis; assay: Post-emergence herbicidal action against SETVI; conditions: 80 g/ha, visual assessment about 3 weeks after treatment
Summary of the method: as §2

[26] = test system: Stellaria media; assay: Post-emergence herbicidal action against STEME; conditions: visual assessment about 3 weeks after treatment
Summary of the method: as §2

[27] = test system: Veronica persica; assay: Post-emergence herbicidal action against VERPE; conditions: 80 g/ha, visual assessment about 3 weeks after treatment
Summary of the method: as §2

[28] = test system: Viola tricolor; assay: Post-emergence herbicidal action against VIOTR
Summary of the method: as §2

Compound: CCn1nnnc1NC(=O)c1ccc(C(F)(F)F)c(C(=O)n2cccn2)c1Cl [Example 2-153]
- Pre-emergence action against ABUTH ([1]; 20 g/ha): 100%
- Pre-emergence action against ABUTH ([1]; 80 g/ha): 100%
- Pre-emergence action against ABUTH ([1]; Dosage column 320 g/ha (heading prints 3200 g/ha)): 100%
- Pre-emergence action against ALOMY [2]: 90%
- Pre-emergence action against AMARE ([3]; 20 g/ha): 100%
- Pre-emergence action against AMARE ([3]; 80 g/ha): 100%
- Pre-emergence action against AMARE ([3]; 320 g/ha): 100%
- Pre-emergence action against AVEFA ([4]; 80 g/ha): 100%
- Pre-emergence action against AVEFA ([4]; 320 g/ha): 100%
- Pre-emergence action against CYPES ([5]; 80 g/ha): 100%
- Pre-emergence action against CYPES ([5]; 320 g/ha): 100%
- Pre-emergence action against ECHCG ([6]; 80 g/ha): 100%
- Pre-emergence action against ECHCG ([6]; 320 g/ha): 100%
- Pre-emergence action against MATIN ([7]; 20 g/ha): 100%
- Pre-emergence action against MATIN ([7]; 80 g/ha): 100%
- Pre-emergence action against MATIN ([7]; 320 g/ha): 100%
- Pre-emergence action against PHBPU [8]: 100%
- Pre-emergence action against HORMU [9]: 90%
- Pre-emergence action against LOLRI ([10]; 80 g/ha): 80%
- Pre-emergence action against LOLRI ([10]; 320 g/ha): 90%
- Pre-emergence action against POLCO ([11]; 80 g/ha): 80%
- Pre-emergence action against POLCO ([11]; 320 g/ha): 100%
- Pre-emergence action against SETVI ([12]; 20 g/ha): 90%
- Pre-emergence action against SETVI ([12]; 80 g/ha): 100%
- Pre-emergence action against SETVI ([12]; 320 g/ha): 100%
- Pre-emergence action against STEME ([13]; 20 g/ha): 90%
- Pre-emergence action against STEME ([13]; 80 g/ha): 100%
- Pre-emergence action against STEME ([13]; 320 g/ha): 100%
- Pre-emergence action against VERPE [14]: 90%
- Pre-emergence action against VIOTR ([15]; 80 g/ha): 100%
- Pre-emergence action against VIOTR ([15]; 320 g/ha): 100%
- Post-emergence action against ABUTH ([16]; 5 g/ha): 80%
- Post-emergence action against ABUTH ([16]; 20 g/ha): 90%
- Post-emergence action against ABUTH ([16]; 80 g/ha): 100%
- Post-emergence action against ALOMY [17]: 90%
- Post-emergence action against AMARE in % ([18]; 5 g/ha): 100%
- Post-emergence action against AMARE in % ([18]; 20 g/ha): 100%
- Post-emergence action against AMARE in % ([18]; 80 g/ha): 100%
- Post-emergence action against AVEFA in % ([19]; 20 g/ha): 90%
- Post-emergence action against AVEFA in % ([19]; 80 g/ha): 100%
- Post-emergence action against ECHCG in % ([20]; 5 g/ha): 80%
- Post-emergence action against ECHCG in % ([20]; 20 g/ha): 80%
- Post-emergence action against ECHCG in % ([20]; 80 g/ha): 90%
- Post-emergence action against MATIN in % ([21]; 5 g/ha): 90%
- Post-emergence action against MATIN in % ([21]; 20 g/ha): 100%
- Post-emergence action against MATIN in % ([21]; 80 g/ha): 100%
- Post-emergence action against PHBPU in % ([22]; 20 g/ha): 80%
- Post-emergence action against PHBPU in % ([22]; 80 g/ha): 90%
- Post-emergence action against LOLRI in % [23]: 80%
- Post-emergence action against POLCO in % ([24]; 20 g/ha): 90%
- Post-emergence action against POLCO in % ([24]; 80 g/ha): 100%
- Post-emergence action against SETVI in % [25]: 100%
- Post-emergence action against STEME in % ([26]; 5 g/ha): 100%
- Post-emergence action against STEME in % ([26]; 20 g/ha): 100%
- Post-emergence action against STEME in % ([26]; 80 g/ha): 100%
- Post-emergence action against VERPE in % [27]: 80%
- Post-emergence action against VIOTR in % ([28]; 5 g/ha): 90%
- Post-emergence action against VIOTR in % ([28]; 20 g/ha): 90%
- Post-emergence action against VIOTR in % ([28]; 80 g/ha): 100%
